Measured values from patent US20160166531A1, “METHODS AND COMPOSITIONS FOR TREATING CARDIOVASCULAR DISORDERS” (Zafgen, Inc., priority 2010, published 2016).
“And” between values parts separate entries of the source, which are not always exact repeats. Identical values can stand only once.

Columns and labels:
total cholesterol [1] = test: Total cholesterol in human subjects with elevated total cholesterol; assay type: in vivo; settings: human subjects with initial fasting total cholesterol in excess of 180 mg/dl, twice weekly for four weeks, n=10, p=0.018 (FIG. 3)
Procedure: Human subjects with initial fasting total cholesterol levels in excess of 180 mg/dl were administered Compound A twice weekly for a total of four weeks of treatment.

C-Reactive Protein (CRP) = test: Serum C-Reactive Protein in obese patients, intravenous twice weekly for 26 days; assay type: in vivo, human
Procedure: (§1) The compound was intravenously administered to each patient of a cohort (except for a placebo cohort) twice weekly for 26 days. Each of patients in the three non-placebo cohorts received either 0.1 mg/m^2 (cohort 1); 0.3 mg/m^2 (cohort 2); or 0.9 mg/m^2 (cohort 3) doses of the compound at the time of administration. The trial was conducted under the appropriate government and medical supervision.

[2] = test system: low density lipoprotein cholesterol (LDLc); settings: obese patients of Example 6 (FIG. 8)
Procedure: as §1

[3] = test system: apolipoprotein(a) (apoLp(a)); test: Apolipoprotein(a) levels in obese patients; assay type: in vivo, human; settings: obese patients of Example 6 (FIG. 9)
Text: The expression of another cardiovascular risk marker, apolipoprotein(a) (apoLp(a)), was examined in the patients described in Example 6. […] Similarly to Example 6, the reduction in apoLp(a) was independent of effects on body weight.

thrombomodulin = test: Thrombomodulin levels in obese patients; assay type: in vivo, human; settings: obese patients of Example 6 (FIG. 7)
Text: The expression of another cardiovascular risk marker, thrombomodulin, was examined in the patients described in Example 6. […] Similarly to Example 6, the reduction in thrombomodulin was independent of effects on metabolic parameters and body weight.

PCSK9 = test: Liver mRNA levels of PCSK9 in treated mice; assay type: in vivo; settings: C57BL/6 mice, at day 3 and after (FIG. 5)
Text: Liver mRNA levels of PCSK9 were examined in C57BL/6 mice treated with ZGN-201. FIG. 5 depicts the hepatic PCSK9 mRNA (% of vehicle control) vs. days of treatment with ZGN-201.

FGF-21 = test: R&D Systems Quantikine Mouse FGF-21 Immunoassay, plasma FGF-21 after ten days of treatment; assay type: in vivo
Text: In Table 1, animals #1.1, 1.2, 1.3, 2.1, 2.2 and 2.3 were vehicle-treated and animal #3.1, 3.2, 3.3, 4.1, 4.2 and 4.3 were ZGN-201-treated. Sample 3.1 was above the level of quantification.
FIG. 4 indicates the average (±SEM) plasma FGF-21 levels for all study groups.

[4] = test system: C57BL/6 mice conditioned on a high fat diet; test: Oral fumagillin in mice conditioned on a high fat diet (DIO); assay type: in vivo
Text: Oral administration of the MetAP2 inhibitor fumagillin causes an increase in circulating ketone bodies, as measured by concentration of beta hydroxybutyrate, which indicates an increase in the breakdown of stored fat and activation of ketogenesis.

total cholesterol [5] = test: Total cholesterol in rats after four weeks of treatment; assay type: in vivo; set-up: Total cholesterol levels, Mean: unit not given here; settings: for Total cholesterol levels, Mean: vehicle mean 86.7
Procedure: Rats were administered 1 or 3 mg/kg fumagillol daily for a total of four weeks of treatment.

[6] = 1 mg/kg po daily for four weeks
[7] = 3 mg/kg po daily for four weeks

## CO[C@@H]1[C@H](OC(=O)C=Cc2ccc(OCCN(C)C)cc2)CC[C@]2(CO2)[C@H]1[C@@]1(C)O[C@@H]1CC=C(C)C [Compound A, O-(4-dimethylaminoethoxycinnamoyl)fumagillol]
Total cholesterol [1]
  Total cholesterol levels: reduced

## CO[C@@H]1[C@H](OC(=O)C=Cc2ccc(OCCN(C)C)cc2)CC[C@]2(CO2)[C@H]1[C@@]1(C)O[C@@H]1CC=C(C)C.O=C(O)C(=O)O [6-O-(4-dimethylaminoethoxyl)cinnamoyl fumagillol oxalate]
C-Reactive Protein (CRP); 0.9 mg/m^2 dose level, by the 26th day of treatment, p<0.01
  subjects with elevated CRP concentrations (above 3.0 μg/ml) reduced to levels within the normal range: six out of eight
C-Reactive Protein (CRP); obese patients, iv twice weekly for 26 days, 0.1, 0.3 or 0.9 mg/m^2 (FIG. 6)
  levels of C-Reactive Protein (CRP) in patients' serum: decrease
[2]
  LDL-c levels: decreases
[3]
  apoLp(a) levels: decreases
thrombomodulin
  thrombomodulin levels: decreases

## CO[C@@H]1[C@H](OC(=O)/C=C/C=C/C=C/C=C/C(=O)O)CC[C@]2(CO2)[C@H]1[C@@]1(C)O[C@@H]1CC=C(C)C [fumagillin]
PCSK9
  hepatic PCSK9 mRNA (% of vehicle control): reduced PCSK9 expression
FGF-21; animals 3.1 to 4.3, one value per animal, listed as ZGN-201
  FGF-21 absolute numbers, Average of duplicates (single animals): AQL and 2248.25 pg/ml and 2514.66 pg/ml and 2166.60 pg/ml and 1194.64 pg/ml and 3597.58 pg/ml
FGF-21; vehicle group mean 991.47
  FGF-21 MEAN of treated group: 2344.34 pg/mL
[4]; DIO C57BL/6 mice, diet admixture 1 mg/kg daily for 250 days (FIG. 1C)
  hydroxybutyrate concentration at longer time points: Increased hydroxybutyrate concentration persisted
[4]; DIO C57BL/6 mice, oral gavage 0.3 or 3 mg/kg daily for 10 days (FIG. 1A)
  beta hydroxybutyrate concentrations: increase
[4]; DIO C57BL/6 mice, oral gavage 0.3 or 3 mg/kg daily for 10 days (FIG. 1B)
  free fatty acid concentration: without an increase
[4]; mice on a high fat diet
  sensitivity to insulin: normalizes
[4]; mice on high fat diet, 1 mg/kg fumagillin, versus age-matched lean mice and untreated DIO mice (FIG. 2A-2C)
  Fasted glucose and insulin levels, insulin-glucose product: more similar to that of age-matched lean mice than that of untreated mice on a high fat diet

## CO[C@@H]1[C@H](O)CC[C@]2(CO2)[C@H]1[C@@]1(C)O[C@@H]1CC=C(C)C [Fumagillol, fumagillol]
Total cholesterol [5]; [6]
  Total cholesterol levels, % of vehicle: 76.5%
  Total cholesterol levels, Mean: 66.3
Total cholesterol [5]; [7]
  Total cholesterol levels, % of vehicle: 63.7%
  Total cholesterol levels, Mean: 55.2
